The values below come from BindingDB's records for PubMed 8169832 (University of Pennsylvania, 1994).

The structures appear in SMILES notation.

For this assay, the target named is 5-hydroxytryptamine receptor 6 (Mus musculus, UniProt Q9R1C8).
5-hydroxytryptamine receptor 6, sequence (Q9R1C8 whole entry): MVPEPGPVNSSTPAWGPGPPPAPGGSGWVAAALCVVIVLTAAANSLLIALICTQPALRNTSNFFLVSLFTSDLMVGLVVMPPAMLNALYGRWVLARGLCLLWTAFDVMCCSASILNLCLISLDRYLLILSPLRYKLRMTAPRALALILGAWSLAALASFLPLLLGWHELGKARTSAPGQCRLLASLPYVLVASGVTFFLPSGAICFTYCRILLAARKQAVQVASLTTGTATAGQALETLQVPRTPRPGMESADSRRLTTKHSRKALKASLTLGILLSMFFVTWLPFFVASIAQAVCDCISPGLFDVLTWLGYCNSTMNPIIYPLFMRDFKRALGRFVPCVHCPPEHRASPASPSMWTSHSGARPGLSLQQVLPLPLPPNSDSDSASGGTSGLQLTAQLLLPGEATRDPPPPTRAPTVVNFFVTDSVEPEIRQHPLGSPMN
What is called Ki is the equilibrium dissociation constant of an inhibitor or competing ligand from its target. Lower therefore signals higher affinity. The compound `NCCc1c[nH]c2ccc(O)cc12` [[3H]-5-HT] displayed an inhibition constant (Ki) of 0.0398 µM. Under `O=C(c1ccc(F)cc1)C1CCN(CCn2c(=O)[nH]c3ccccc3c2=O)CC1` [3-(2-{4-[(4-fluorophenyl)carbonyl]piperidin-1-yl}ethyl)-1,2,3,4-tetrahydroquinazoline-2,4-dione] stands 1 µM. Regarding `Cn1cc(CCN)c2cc(O)ccc21` [5-HT,omega-N-Me], the Ki was 2 µM.

`Cc1[nH]c2ccc(O)cc2c1CCN` had an inhibitory constant (Ki) of 0.398 µM. On to `CSc1ccc2c(c1)C(N1CCN(C)CC1)Cc1ccccc1S2` (stereo not drawn) [methanesulfonic acid;1-methyl-4-(3-methylsulfanyl-5,6-dihydrobenzo[b][1]benzothiepin-5-yl)piperazine], for which the affinity corresponds to a Ki of 0.00199 µM. Compound `CN1CCc2cc(Cl)c(O)cc2[C@@H](c2ccccc2)C1` [SCH 23390,R(+)] returned an inhibition constant Ki of 2.51 µM. With `CN1CCN(C2=c3ccccc3=Nc3ccc(Cl)cc3N2)CC1` [6-chloro-10-(4-methylpiperazin-1-yl)-2,9-diazatricyclo[9.4.0.0^{3,8}]pentadeca-1,3(8),4,6,10,12,14-heptaene], the Ki stood at 0.0316 µM. As for `CN1CCN2c3ccccc3Cc3ccccc3[C@H]2C1` [MIANSERIN (+)], the figure is 0.0199 µM.
